The supplement of paper PMC10307832

What was measured:
Test in all cases: relative viability (nuclei count vs DMSO), 5 days (fraction); higher = more cells survive
SGI-1776 + Dasatinib = compound: CN1CCC(CNc2ccc3ncc(-c4cccc(OC(F)(F)F)c4)n3n2)CC1 [SGI-1776] + Cc1nc(Nc2ncc(C(=O)Nc3c(C)cccc3Cl)s2)cc(N2CCN(CCO)CC2)n1 [Dasatinib] (partner 0.075 µM)
Summary of the method: (§1)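 Lung cancer cell lines in 1536-well plates were dosed by pin tool the day after seeding, either with one drug alone or with a fixed anchor-drug dose plus five library-drug doses (not always all listed) in √10 steps. After 5 days, cells were fixed and their nuclei stained in one step (final 0.05% Triton X-100, 1% formaldehyde, 1 ug/ml Hoechst), then counted on 4× images. Relative viability is the nuclei count in treated wells divided by that in vehicle wells. Values are medians of duplicate plates.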

Entinostat + Bortezomib = compound: Nc1ccccc1NC(=O)c1ccc(CNC(=O)OCc2cccnc2)cc1 [Entinostat] + CC(C)C[C@H](NC(=O)[C@H](Cc1ccccc1)NC(=O)c1cnccn1)B(O)O [Bortezomib] (partner 0.002 µM)
Summary of the method: as §1

[1] = compound: C1COCCN1C2=NC(=NC3=C2OC4=C3C=CC=N4)C5=CC(=CC=C5)NC(=O)C6=CN=C(C=C6)N + Nc1ncn([C@H]2C[C@H](O)[C@@H](CO)O2)c(=O)n1 [Decitabine] (partner 2 µM)
Summary of the method: as §1

Entinostat + Trametinib = compound: Nc1ccccc1NC(=O)c1ccc(CNC(=O)OCc2cccnc2)cc1 [Entinostat] + CC(=O)Nc1cccc(-n2c(=O)n(C3CC3)c(=O)c3c(Nc4ccc(I)cc4F)n(C)c(=O)c(C)c32)c1 [Trametinib] (partner 0.02 µM)
Summary of the method: as §1

Cell Line: NCI-H23
- relative viability (SGI-1776 + Dasatinib; first compound 0.08 µM): 0.819
- relative viability (SGI-1776 + Dasatinib; first compound 0.8 µM): 0.84
- relative viability (SGI-1776 + Dasatinib; first compound 2.53 µM): 0.813
- relative viability (SGI-1776 + Dasatinib; first compound 8 µM): 0.831
- relative viability (Entinostat + Bortezomib; first compound 0.02 µM): 0.91
- relative viability (Entinostat + Bortezomib; first compound 0.06325 µM): 1.41
- relative viability (Entinostat + Bortezomib; first compound 0.2 µM): 1.12
- relative viability (Entinostat + Bortezomib; first compound 0.6325 µM): 0.808
- relative viability (Entinostat + Bortezomib; first compound 2 µM): 0.497
- relative viability ([1]; first compound 0.02 µM): 0.285
- relative viability ([1]; first compound 0.06325 µM): 0.371
- relative viability ([1]; first compound 0.2 µM): 0.288
- relative viability ([1]; first compound 0.6325 µM): 0.378
- relative viability ([1]; first compound 2 µM): 0.277
- relative viability (Entinostat + Trametinib; first compound 0.02 µM): 0.411
- relative viability (Entinostat + Trametinib; first compound 0.06325 µM): 0.475
- relative viability (Entinostat + Trametinib; first compound 0.2 µM): 0.483
- relative viability (Entinostat + Trametinib; first compound 0.6325 µM): 0.394
- relative viability (Entinostat + Trametinib; first compound 2 µM): 0.215

Cell Line: NCI-H596
- relative viability (SGI-1776 + Dasatinib; first compound 0.08 µM): 0.571
- relative viability (SGI-1776 + Dasatinib; first compound 0.8 µM): 0.528
- relative viability (SGI-1776 + Dasatinib; first compound 2.53 µM): 0.51
- relative viability (SGI-1776 + Dasatinib; first compound 8 µM): 0.441
- relative viability (Entinostat + Bortezomib; first compound 0.02 µM): 1.09
- relative viability (Entinostat + Bortezomib; first compound 0.06325 µM): 1.16
- relative viability (Entinostat + Bortezomib; first compound 0.2 µM): 1
- relative viability (Entinostat + Bortezomib; first compound 0.6325 µM): 0.974
- relative viability (Entinostat + Bortezomib; first compound 2 µM): 0.902
- relative viability ([1]; first compound 0.02 µM): 0.951
- relative viability ([1]; first compound 0.06325 µM): 0.971
- relative viability ([1]; first compound 0.2 µM): 1.15
- relative viability ([1]; first compound 2 µM): 1.07
- relative viability (Entinostat + Trametinib; first compound 0.02 µM): 0.748
- relative viability (Entinostat + Trametinib; first compound 0.06325 µM): 0.638
- relative viability (Entinostat + Trametinib; first compound 0.2 µM): 0.807
- relative viability (Entinostat + Trametinib; first compound 0.6325 µM): 0.649
- relative viability (Entinostat + Trametinib; first compound 2 µM): 0.459

Cell Line: NCI-H460
- relative viability (SGI-1776 + Dasatinib; first compound 0.08 µM): 0.52
- relative viability (SGI-1776 + Dasatinib; first compound 0.8 µM): 0.543
- relative viability (SGI-1776 + Dasatinib; first compound 2.53 µM): 0.508
- relative viability (SGI-1776 + Dasatinib; first compound 8 µM): 0.299
- relative viability (Entinostat + Bortezomib; first compound 0.02 µM): 1.09
- relative viability (Entinostat + Bortezomib; first compound 0.06325 µM): 1.05
- relative viability (Entinostat + Bortezomib; first compound 0.2 µM): 0.85
- relative viability (Entinostat + Bortezomib; first compound 0.6325 µM): 0.0581
- relative viability (Entinostat + Bortezomib; first compound 2 µM): 0.0179
- relative viability ([1]; first compound 0.02 µM): 0.55
- relative viability ([1]; first compound 0.06325 µM): 0.563
- relative viability ([1]; first compound 0.2 µM): 0.517
- relative viability ([1]; first compound 0.6325 µM): 0.525
- relative viability ([1]; first compound 2 µM): 0.195
- relative viability (Entinostat + Trametinib; first compound 0.02 µM): 0.226
- relative viability (Entinostat + Trametinib; first compound 0.06325 µM): 0.0831
- relative viability (Entinostat + Trametinib; first compound 0.2 µM): 0.0851
- relative viability (Entinostat + Trametinib; first compound 0.6325 µM): 0.0455
- relative viability (Entinostat + Trametinib; first compound 2 µM): 0.0239
